According to ChEMBL document CHEMBL3244327, “Benzomorphans. Structure of a position isomer” (J Med Chem, 1978):
The source made the active and inactive calls. The rule behind the calls is not given here.

Experiments:
[1] = test system: Rattus norvegicus; assay: Narcotic antagonist activity in sc dosed rat assessed as dose required for 50% antagonist activity co-treated with meperidine; assay type: functional
[2] = test system: Mus musculus; assay: Analgesic activity in sc dosed mouse assessed as inhibition of acetylcholine bromide-induced writhing after 2 mins; assay type: functional
[3] = test system: Rattus norvegicus; assay: Narcotic antagonist activity in rat assessed as dose required for 50% antagonist activity at 80 mg/kg, sc co-treated with meperidine; assay type: functional, organism-based; set-up: dose 80 mg/kg
[4] = test system: Rattus norvegicus; assay: Narcotic antagonist activity in rat assessed as dose required for 50% antagonist activity at 10 mg/kg, sc co-treated with meperidine; assay type: functional, organism-based; set-up: dose 10 mg/kg
[5] = test system: Rattus norvegicus; assay: Toxicity in rat at 80 mg/kg, sc; assay type: organism-based; set-up: dose 80 mg/kg, route subcutaneous; conditions: in vivo

SMILES	AD50 [1] [mg/kg]	ED50 [2] [mg/kg]	also measured
C[C@H]1C2Cc3ccc(O)cc3[C@@]1(C)CCN2Cc1ccccc1	1.3	23	
CC1CN(C)C2Cc3ccc(O)cc3[C@@]1(C)C2 (some centres undefined)		2.9	
CC[C@H]1C2Cc3ccc(O)cc3[C@@]1(C)CCN2C		1.1	Activity [3]: inactive
CC[C@@]12CCN(CC=C(C)C)C(Cc3ccc(O)cc31)[C@@H]2C	10.9	2.1	
CC[C@@]12CC(Cc3ccc(O)cc31)N(CC=C(C)C)CC2C (some centres undefined)	>40		
C[C@H]1C2Cc3ccc(O)cc3[C@@]1(C)CCN2C		0.54	
CN1CC[C@]23c4c5ccc(O)c4O[C@H]2[C@@H](O)C=C[C@H]3[C@H]1C5 [MORPHINE]		0.47	Activity [1]: inactive
CC(C)=CCN1CC[C@@]2(C)c3cc(O)ccc3C[C@@H]1[C@@H]2C (relative stereo)	3.9	2.2	
C=CCN1CC(C)[C@]2(CC)CC1Cc1ccc(O)cc12 (some centres undefined)	0.037	10	
CCC1CN(C)C2Cc3ccc(O)cc3[C@@]1(C)C2 (some centres undefined)	9	20	
CC1CN(Cc2ccccc2)C2Cc3ccc(O)cc3[C@@]1(C)C2 (some centres undefined)		8.5	Activity [4]: inactive; Activity [5]: Toxic
C=CCN1CC[C@]2(CC)c3cc(O)ccc3CC1[C@@H]2C	0.064	0.23	
CC(C)=CCN1C[C@@H](C)[C@]2(C)C[C@@H]1Cc1ccc(O)cc12	2.8	29	
